Experimental data published in the supplement of paper PMC11451515.

Tested on: SEM cells
Experiment: cell viability relative to DMSO control; higher = less cytotoxic
Details: 48 h
Summary of the method: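 Viability is expressed as a percentage of DMSO wells within each plate, and cell-free wells serve as background. Seeding densities in the 1536-well plates (5 μl) were 500 cells/well for NOMO1 or SEM leukemia cells and 1000 cells/well for P12-Ichikawa. Each line was adapted for at least four passages in each medium. Library compounds in DMSO were pin-dosed at 47 μM to 0.79 nM (11 points, threefold), and CellTiter-Glo One luminescence was read after 48 h at 37°C.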

[1] = HPLM + 10% dialyzed FBS, 0.000781 µM
[2] = HPLM + 10% dialyzed FBS, 0.00234 µM
[3] = HPLM + 10% dialyzed FBS, 0.00702 µM
[4] = HPLM + 10% dialyzed FBS, 0.0211 µM
[5] = HPLM + 10% dialyzed FBS, 0.0632 µM
[6] = HPLM + 10% dialyzed FBS, 0.19 µM
[7] = HPLM + 10% dialyzed FBS, 0.569 µM
[8] = HPLM + 10% dialyzed FBS, 1.71 µM
[9] = HPLM + 10% dialyzed FBS, 5.12 µM
[10] = HPLM + 10% dialyzed FBS, 15.4 µM
[11] = HPLM + 10% dialyzed FBS, 46.1 µM
[12] = RPMI 5 mM glucose + 10% FBS, 0.000781 µM
[13] = RPMI 5 mM glucose + 10% FBS, 0.00234 µM
[14] = RPMI 5 mM glucose + 10% FBS, 0.00702 µM
[15] = RPMI 5 mM glucose + 10% FBS, 0.0211 µM
[16] = RPMI 5 mM glucose + 10% FBS, 0.0632 µM
[17] = RPMI 5 mM glucose + 10% FBS, 0.19 µM
[18] = RPMI 5 mM glucose + 10% FBS, 0.569 µM
[19] = RPMI 5 mM glucose + 10% FBS, 1.71 µM
[20] = RPMI 5 mM glucose + 10% FBS, 5.12 µM
[21] = RPMI 5 mM glucose + 10% FBS, 15.4 µM
[22] = RPMI 5 mM glucose + 10% FBS, 46.1 µM
[23] = RPMI 5 mM glucose + 10% dialyzed FBS, 0.000781 µM
[24] = RPMI 5 mM glucose + 10% dialyzed FBS, 0.00234 µM
[25] = RPMI 5 mM glucose + 10% dialyzed FBS, 0.00702 µM
[26] = RPMI 5 mM glucose + 10% dialyzed FBS, 0.0211 µM
[27] = RPMI 5 mM glucose + 10% dialyzed FBS, 0.0632 µM
[28] = RPMI 5 mM glucose + 10% dialyzed FBS, 0.19 µM
[29] = RPMI 5 mM glucose + 10% dialyzed FBS, 0.569 µM
[30] = RPMI 5 mM glucose + 10% dialyzed FBS, 1.71 µM
[31] = RPMI 5 mM glucose + 10% dialyzed FBS, 5.12 µM
[32] = RPMI 5 mM glucose + 10% dialyzed FBS, 15.4 µM
[33] = RPMI 5 mM glucose + 10% dialyzed FBS, 46.1 µM

Row | Structure (SMILES) | cell viability [1] [%] | cell viability [2] [%] | cell viability [3] [%] | cell viability [4] [%] | cell viability [5] [%] | cell viability [6] [%] | cell viability [7] [%] | cell viability [8] [%] | cell viability [9] [%] | cell viability [10] [%] | cell viability [11] [%] | cell viability [12] [%] | cell viability [13] [%] | cell viability [14] [%] | cell viability [15] [%] | cell viability [16] [%] | cell viability [17] [%] | cell viability [18] [%] | cell viability [19] [%] | cell viability [20] [%] | cell viability [21] [%] | cell viability [22] [%] | cell viability [23] [%] | cell viability [24] [%] | cell viability [25] [%] | cell viability [26] [%] | cell viability [27] [%] | cell viability [28] [%] | cell viability [29] [%] | cell viability [30] [%] | cell viability [31] [%] | cell viability [32] [%] | cell viability [33] [%]
1 | CC(C)C[C@H](NC(=O)[C@H](CCc1ccccc1)NC(=O)CN1CCOCC1)C(=O)N[C@@H](Cc1ccccc1)C(=O)N[C@@H](CC(C)C)C(=O)[C@@]1(C)CO1 | 84.6 | 86.5 | 100 | 8.14 | 7.13 | 7.08 | 6.63 | 5.14 | 4.16 | 1.67 | 1.47 | 97.5 | 102 | 65.7 | 8.2 | 7.68 | 6.95 | 7.46 | 4.9 | 2.81 | 1.52 | 1.37 | 72.1 | 81.7 | 80.6 | 8.46 | 7.46 | 7.29 | 6.73 | 4.71 | 3.02 | 1.73 | 1.54
2 | Cc1c(NC(=O)OC[C@@H]2COCCN2)cn2ncnc(Nc3ccc4c(cnn4Cc4cccc(F)c4)c3)c12 | 74.5 | 72 | 85.6 | 85.8 | 91.5 | 106 | 94.5 | 96.8 | 103 | 21.7 | 25 | 95.5 | 95.2 | 103 | 103 | 116 | 102 | 109 | 104 | 98.6 | 15.4 | 10.8 | 71.7 | 62.1 | 78.1 | 90.3 | 74.8 | 84 | 88.5 | 99.6 | 85.6 | 16.8 | 9.72
3 | Cc1cn([C@@H]2O[C@H](CO)[C@@H](O)[C@@H]2F)c(=O)[nH]c1=O | 74.5 | 103 | 102 | 101 | 110 | 104 | 110 | 116 | 116 | 104 | 95 | 101 | 102 | 103 | 93.4 | 122 | 107 | 108 | 113 | 117 | 122 | 119 | 77 | 111 | 92.3 | 109 | 127 | 122 | 108 | 105 | 124 | 93.5 | 92.7
4 | CCn1c(-c2nonc2N)nc2cnc(Oc3cccc(NC(=O)c4ccc(OCCN5CCOCC5)cc4)c3)cc21 | 93.1 | 106 | 102 | 98.7 | 111 | 114 | 113 | 111 | 102 | 82.2 | 70.3 | 102 | 102 | 108 | 119 | 122 | 100 | 102 | 111 | 93.4 | 71.9 | 54.5 | 124 | 111 | 105 | 113 | 108 | 102 | 92.2 | 116 | 106 | 86.6 | 59.7
5 | CNC(=O)c1ccc(N2C(=S)N(c3ccc(C#N)c(C(F)(F)F)c3)C(=O)C23CCC3)cc1F | 87.3 | 98.8 | 95.9 | 19.5 | 92.3 | 97 | 97.8 | 95.2 | 101 | 96.9 | 97.3 | 84.7 | 83.4 | 104 | 14.2 | 83 | 98.3 | 99.3 | 91.7 | 86.7 | 98.3 | 96.3 | 84.3 | 83 | 104 | 15.8 | 102 | 101 | 96.3 | 96.9 | 98 | 96.3 | 111
6 | C/C=C1\C2C=C(C)CC1(N)c1ccc(=O)[nH]c1C2 (stereo unspecified) | 103 | 108 | 120 | 109 | 28.9 | 94.2 | 98 | 106 | 102 | 68.1 | 98.7 | 105 | 113 | 109 | 99.6 | 18.2 | 103 | 106 | 114 | 104 | 88 | 96.4 | 103 | 106 | 114 | 113 | 39.9 | 115 | 114 | 108 | 104 | 85.6 | 98.2
7 | CC(C)(C)c1[nH]cnc1/C=c1\[nH]c(=O)/c(=C/c2ccccc2)[nH]c1=O | 102 | 69 | 20 | 23.9 | 24.3 | 25.5 | 24.3 | 7.62 | 4.47 | 4.16 | 3.59 | 117 | 85.4 | 16.6 | 14 | 16.1 | 17.9 | 12.1 | 4.12 | 3.51 | 2.93 | 2.89 | 106 | 80 | 17.5 | 21.2 | 23.4 | 21.4 | 19.5 | 4.68 | 3.49 | 3.56 | 3.02
